Results published in paper PMC4674680, “An in cellulo-derived structure of PAK4 in complex with its inhibitor Inka1” (Nature Communications, 2015).
No end group written: not given here.

Assays:
PAK4 = conditions: binds in vitro; ATP-competitive; cited from earlier work
Protocol: As the Flag-iBox-PAK4 crystal structure contained bound ATP, which is stabilized by the Inka1 inhibitory peptide (Fig. 3a), we were interested on the effect of the ATP-competitive PAK4 inhibitor PF-03758309, which binds with 10 nM affinity in vitro[45]. […] Thus, PF-03758309 appears to allow PAK4cat to incorporate with sub-stoichiometric levels of GFP–Inka1, consistent with PF-03758309 either reducing the affinity of GFP–Inka1 or allowing PAK4cat inco ...

[1] = test system: GFP–Inka1:PAK4cat co-crystals; assay: Live imaging of growing GFP-Inka1:PAK4cat crystals, effect of PF-03758309; assay type: cell-based
Protocol: Live cell imaging of crystal growth and SIM and confocal microscopy
The cells were plated at 50% confluence glass cover slips overnight: plasmid transfection used GFP–iBox–Pak4cat and FLAG–iBox–Pak4cat constructs at a ratio of 4:1, to promote crystal nucleation. The cover slips were transferred to a Chamlide magnetic chamber (Live Cell Instruments, Seoul, Korea) with 5% CO2 at 37 °C for live imaging on an Zeiss Axiovert 200 M live-cell imaging with a × 10 objective. We imaged multiple chosen regions for 8 h at 6-min intervals. To measure crystal growth rate, we used instead a Nikon Eclipse Ti microscope equipped with spinning disk confocal attachment (Yokogawa CSU-22 module) to avoid photo-damage. The cells were imaged at × 60 1.4 numerical aperture (NA) objective at 2-min intervals. For SIM and confocal imaging, cells were fixed in non-hardening mounting media (Vectashield). The slides were imaged by Delta vision OMX SIM with a × 100 1.4 NA objective. […] The three-dimensional stacks were analysed by IMARIS software.

PAK4cat [2] = target: T1, PAK4cat (Homo sapiens, UniProt O96013); assay: In-cellulo crystal formation with PAK4cat; assay type: cell-based; design: PAK4 (286–591); conditions: transfected mammalian cells
T1 sequence (O96013 286-591): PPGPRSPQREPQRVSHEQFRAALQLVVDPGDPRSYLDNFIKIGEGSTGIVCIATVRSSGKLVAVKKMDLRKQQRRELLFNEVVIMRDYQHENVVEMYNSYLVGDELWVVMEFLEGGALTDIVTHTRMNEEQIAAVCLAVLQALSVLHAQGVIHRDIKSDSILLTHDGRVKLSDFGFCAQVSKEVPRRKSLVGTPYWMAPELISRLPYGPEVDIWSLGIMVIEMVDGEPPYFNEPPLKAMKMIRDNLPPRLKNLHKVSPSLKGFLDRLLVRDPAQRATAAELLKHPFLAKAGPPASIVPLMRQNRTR
Protocol: Generation and harvesting of intracellular PAK4 crystals
COS-7, HeLa, HEK293 or U2OS cells (35-mm culture dish or glass coverslip) were typically transfected with 2.5 μg of each plasmid in 2 ml of media using Lipofectamine 2000 (Invitrogen) or the GenomeONE Neo EX haemagglutinating virus of Japan envelope transfection kit (Cosmo Bio Co. Ltd) as per the manufacturer's protocol. Crystals were observed by phase-contrast microscopy using a × 10 objective (Nikon Eclipse TE300) 1–4 days post transfection. The structure of Flag–iBox–PAK4cat (Figs 2 and 3) was determined from crystals grown in COS-7 cells. The cells were harvested 3 days after transfection by incubating in PBS with 0.125% (w/v) trypsin and 25% (v/v) glycerol (Merck) for 30 min. Individual cells containing single crystals were then mounted in 0.1–0.2 mm cryoloops (Hampton Research) and flash cooled in liquid nitrogen.

PAK4cat [3] = target: T1, PAK4cat; assay: In-vitro kinase assay, PAK4cat (phosphorylation of GST-Raf13); assay type: biochemical; design: PAK1 (1–545) and PAK4 (286–591), respectively; 6His (N); made in house; host or cells: Escherichia coli BL21-CodonPlus(DE3); conditions: Fig. 1d; n=3; IC50 from intercepts of the graphs; PAK 50 nM, 10 μM GST-Raf1S338, 10 μM ATP (γ32P), pH 7.3, 30 °C 20 min; peptide preincubated on ice 10 min
Protocol: Purified PAK1 or PAK4 (50 nM in 25–50 μl) were incubated with 10 μM GST-Raf1S338 peptide in 10 μM ATP (2 μCi of γ32P ATP) of kinase buffer (25 mM HEPES, pH 7.3, 0.1% Triton X-100, 50 mM KCl, 10 mM MgCl2, 1 mM dithiothreitol) at 30 °C for 20 min. Samples were analysed by SDS–PAGE or adsorption of the GST substrate mix onto polyvinylidene difluoride membranes, followed by extensive washing to remove free γ32P-ATP. The synthetic peptides of 95% purity, as determined by HPLC and mass spectrometric analyses (GenScript), were soluble in aqueous PBS. Stock solutions (10 mM) were quantified via calculated extinction coefficients and absorbance measurements at 280 nm and stored at −80 °C. The diluted peptides were incubated at the indicated concentrations with the kinase on ice (10 min) before addition of γ32P ATP and subsequent incubation at 30 °C. The synthetic peptide array (Jerini Biotools) was phosphorylated in situ as described previously.

Molecule: Cc1nc(Nc2[nH]nc3c2CN(C(=O)N[C@H](CN(C)C)c2ccccc2)C3(C)C)c2sccc2n1 [PF-03758309]
- affinity (PAK4): 10 nM
- Effect on crystal GFP signal, in words ([1]; 5 μM PF-03758309, elongation phase): depleted of GFP signal
- Effect on crystal growth rate, in words ([1]; after PF3758309 addition (5 μM), Fig. 6d): Crystal growth slowed

Molecule: Inka1 (255–285): C-terminal 31 amino acid of Inka1 (RPEPELPADVSRFAALMSCRSRQPIICNDVS; UniProt Q96EL1 255-285, looked up, fragment)
- Induction of intracellular crystals with PAK4cat, in words (PAK4cat [2]): able to induce crystals more efficiently than the Inka1 (166–203)

Molecule: RGRSRQPLVLGDNC [iBox14]
- IC50 (PAK4cat [3]): 5 µM
